Measurements reported in ChEMBL document CHEMBL1201862, “PubChem BioAssay data set” (2004).
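These data come from cells grown in 96-well plates and exposed to compound for 48 hours at five concentrations. GI50: concentration for 50% inhibition of growth.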 Activity calls are given as the source filed them. Cut-off read from the data, not from the text of the source: active = GI50 up to about 1.1 µM and inactive = higher.

Columns and labels:
Experiment in all cases: growth of human tumour cells (NCI), 48 h
786-0 = test system: 786-0
KM12 = test system: KM12
SNB-75 = test system: SNB-75
SK-OV-3 = test system: SK-OV-3
UO-31 = test system: UO-31
TK-10 = test system: TK-10
SK-MEL-28 = test system: SK-MEL-28
LOX IMVI = test system: LOX IMVI
NCI/ADR-RES = test system: NCI/ADR-RES
OVCAR-4 = test system: OVCAR-4
MDA-N = test system: MDA-N
SF-295 = test system: SF-295
HOP-62 = test system: HOP-62
HCC 2998 = test system: HCC 2998
A498 = test system: A498
OVCAR-8 = test system: OVCAR-8
NCI-H23 = test system: NCI-H23
NCI-H460 = test system: NCI-H460
U-251 = test system: U-251
SNB-19 = test system: SNB-19
RPMI-8226 = test system: RPMI-8226
OVCAR-3 = test system: OVCAR-3
MOLT-4 = test system: MOLT-4
SK-MEL-5 = test system: SK-MEL-5
SN12C = test system: SN12C
SK-MEL-2 = test system: SK-MEL-2
M14 = test system: M14
UACC-257 = test system: UACC-257
Malme-3M = test system: Malme-3M
COLO 205 = test system: COLO 205
SF-268 = test system: SF-268
SF-539 = test system: SF-539
A549 = test system: A549
MDA-MB-435 = test system: MDA-MB-435
EKVX = test system: EKVX
CAKI-1 = test system: CAKI-1
MDA-MB-231 = test system: MDA-MB-231
UACC-62 = test system: UACC-62
HCT-116 = test system: HCT-116
HCT-15 = test system: HCT-15
MCF7 = test system: MCF7
NCI-H226 = test system: NCI-H226
Hs-578T = test system: Hs-578T
PC-3 = test system: PC-3
HOP-92 = test system: HOP-92
SR = test system: SR
HL-60 = test system: HL-60
RXF 393 = test system: RXF 393
ACHN = test system: ACHN
BT-549 = test system: BT-549
K562 = test system: K562
T47D = test system: T47D
NCI-H522 = test system: NCI-H522
IGROV-1 = test system: IGROV-1
HT-29 = test system: HT-29
OVCAR-5 = test system: OVCAR-5
SW-620 = test system: SW-620
DU-145 = test system: DU-145

For `Cc1cc(O)c(C(C)C)cc1C1(c2cc(C(C)C)c(O)cc2C)OC(=O)c2ccccc21`, the GI50 (786-0) was 2400 nM (inactive), the GI50 (KM12) was 1750 nM (inactive) and the GI50 (SNB-75) was 2580 nM (inactive). For the same molecule, the GI50 (SK-OV-3) was 4470 nM (inactive), the GI50 (UO-31) was 2560 nM (inactive) and the GI50 (TK-10) was 3330 nM (inactive). The GI50 (SK-MEL-28) was 1600 nM (inactive), the GI50 (LOX IMVI) was 1780 nM (inactive) and the GI50 (NCI/ADR-RES) was 2900 nM (inactive). For the same molecule, the GI50 (OVCAR-4) was 2120 nM (inactive), the GI50 (MDA-N) was 1670 nM (inactive) and the GI50 (SF-295) was 1780 nM (inactive). For the same molecule, the GI50 (HOP-62) was 2760 nM (inactive), the GI50 (HCC 2998) was 1730 nM (inactive) and the GI50 (A498) was 2430 nM (inactive). The GI50 (OVCAR-8) was 2700 nM (inactive), the GI50 (NCI-H23) was 2120 nM (inactive) and the GI50 (NCI-H460) was 1920 nM (inactive). For the same molecule, the GI50 (U-251) was 1970 nM (inactive), the GI50 (SNB-19) was 3150 nM (inactive) and the GI50 (RPMI-8226) was 1210 nM (inactive). The GI50 (OVCAR-3) was 2060 nM (inactive), the GI50 (MOLT-4) was 1340 nM (inactive) and the GI50 (SK-MEL-5) was 1600 nM (inactive). The GI50 (SN12C) was 2020 nM (inactive), the GI50 (SK-MEL-2) was 1820 nM (inactive) and the GI50 (M14) was 1820 nM (inactive). For the same molecule, the GI50 (UACC-257) was 1850 nM (inactive), the GI50 (Malme-3M) was 2210 nM (inactive) and the GI50 (COLO 205) was 1930 nM (inactive). For the same molecule, the GI50 (SF-268) was 2100 nM (inactive), the GI50 (SF-539) was 1790 nM (inactive) and the GI50 (A549) was 3050 nM (inactive). For the same molecule, the GI50 (MDA-MB-435) was 1630 nM (inactive), the GI50 (EKVX) was 2990 nM (inactive) and the GI50 (CAKI-1) was 3370 nM (inactive). The GI50 (MDA-MB-231) was 1910 nM (inactive), the GI50 (UACC-62) was 1460 nM (inactive) and the GI50 (HCT-116) was 1670 nM (inactive). For the same molecule, the GI50 (HCT-15) was 2000 nM, the GI50 (MCF7) was 1840 nM (inactive) and the GI50 (NCI-H226) was 2480 nM (inactive). For the same molecule, the GI50 (Hs-578T) was 2140 nM (inactive), the GI50 (PC-3) was 2260 nM (inactive) and the GI50 (HOP-92) was 1920 nM (inactive). For the same molecule, the GI50 (SR) was 1360 nM (inactive), the GI50 (HL-60) was 415 nM (active) and the GI50 (RXF 393) was 1470 nM (inactive). For the same molecule, the GI50 (ACHN) was 2620 nM (inactive), the GI50 (BT-549) was 2240 nM (inactive) and the GI50 (K562) was 1190 nM (inactive). For the same molecule, the GI50 (T47D) was 1850 nM (inactive), the GI50 (NCI-H522) was 1840 nM (inactive) and the GI50 (IGROV-1) was 2810 nM (inactive). The GI50 (HT-29) was 2390 nM (inactive), the GI50 (OVCAR-5) was 2380 nM (inactive) and the GI50 (SW-620) was 1760 nM (inactive). For the same molecule, the GI50 (DU-145) was 2070 nM (inactive).
